Reference: ChEMBL document CHEMBL4477259, “Discovery and structure-activity relationships of a novel isothiazolone class of bacterial type II topoisomerase inhibitors” (Bioorg Med Chem Lett, 2016)
pIC50: −log10 of the molar value. In brackets after ≈: the same amount, converted by molar mass.

Tests used:
[1] = test system: Escherichia coli; experiment: Antibacterial activity against Escherichia coli W4573; assay type: functional
[2] = test system: Klebsiella pneumoniae; experiment: Antibacterial activity against Klebsiella pneumoniae ATCC 700603; assay type: functional
[3] = test system: Staphylococcus aureus; experiment: Antibacterial activity against Staphylococcus aureus ATCC 29213; assay type: functional
[4] = test system: Pseudomonas aeruginosa; experiment: Antibacterial activity against Pseudomonas aeruginosa ATCC 27853; assay type: functional
[5] = test system: Acinetobacter baumannii; experiment: Antibacterial activity against Acinetobacter baumannii NCTC 13420; assay type: functional
[6] = test system: Escherichia coli; experiment: Antibacterial activity against Escherichia coli N43; assay type: functional
[7] = test system: Escherichia coli; experiment: Antibacterial activity against Escherichia coli CH440 harboring GyrA S83L/D87N double mutant/ParC S80I E84V double mutant/aac(6')-lb-cr; assay type: functional
[8] = test system: Escherichia coli; experiment: Antibacterial activity against Escherichia coli LM367 harboring delta marR/delta acrR double mutant; assay type: functional
[9] = test system: Escherichia coli; experiment: Antibacterial activity against Escherichia coli CH448 harboring GyrA S83L mutant/qnrS; assay type: functional
[10] = test system: Escherichia coli; experiment: Selectivity ratio of MIC for Escherichia coli LM693 harboring GyrA S83L/D87N double mutant/ParC S80I mutant to MIC for wild type Escherichia coli LM179; assay type: functional
[11] = test system: Escherichia coli; experiment: Selectivity ratio of MIC for Escherichia coli CH460 harboring GyrA S83L/D87N double mutant/ParC S80I E84V double mutant/qepA to MIC for wild type Escherichia coli LM179; assay type: functional
[12] = test system: Escherichia coli; experiment: Selectivity ratio of MIC for Escherichia coli CH418 harboring GyrA S83L/D87N double mutant/ParC S80I E84G double mutant/qnrA to MIC for wild type Escherichia coli LM179; assay type: functional
[13] = test system: Escherichia coli; experiment: Selectivity ratio of MIC for Escherichia coli LM625 harboring GyrA S83L/D87N double mutant to MIC for wild type Escherichia coli LM179; assay type: functional
[14] = test system: Escherichia coli; experiment: Antibacterial activity against wild type Escherichia coli LM179; assay type: functional
[15] = test system: Escherichia coli; experiment: Antibacterial activity against Escherichia coli LM693 harboring GyrA S83L/D87N double mutant/ParC S80I mutant; assay type: functional
[16] = test system: Escherichia coli; experiment: Antibacterial activity against Escherichia coli LM625 harboring GyrA S83L/D87N double mutant; assay type: functional
[17] = test system: Escherichia coli; experiment: Selectivity ratio of MIC for Escherichia coli CH448 harboring GyrA S83L mutant/qnrS to MIC for wild type Escherichia coli LM179; assay type: functional
[18] = test system: Escherichia coli; experiment: Antibacterial activity against Escherichia coli LM705 harboring GyrA S83L/D87N double mutant/ParC S80I mutant/delta marR/delta acrR double mutant; assay type: functional
[19] = test system: Escherichia coli; experiment: Selectivity ratio of MIC for Escherichia coli LM367 harboring delta marR/delta acrR double mutant to MIC for wild type Escherichia coli LM179; assay type: functional
[20] = test system: Escherichia coli; experiment: Selectivity ratio of MIC for Escherichia coli LM705 harboring GyrA S83L/D87N double mutant/ParC S80I mutant/delta marR/delta acrR double mutant to MIC for wild type Escherichia coli LM179; assay type: functional
[21] = test system: Escherichia coli; experiment: Antibacterial activity against Escherichia coli CH418 harboring GyrA S83L/D87N double mutant/ParC S80I E84G double mutant/qnrA; assay type: functional
[22] = test system: Escherichia coli; experiment: Selectivity ratio of MIC for Escherichia coli CH440 harboring GyrA S83L/D87N double mutant/ParC S80I E84V double mutant/aac(6')-lb-cr to MIC for wild type Escherichia coli LM179; assay type: functional
[23] = test system: Escherichia coli; experiment: Antibacterial activity against Escherichia coli CH460 harboring GyrA S83L/D87N double mutant/ParC S80I E84V double mutant/qepA; assay type: functional
[24] = n-octanol/phosphate buffer partition coefficient, log D of compound at pH 7.4 by shake-flask assay; assay type: physicochemical
[25] = biological target: hERG (KCNH2) (Homo sapiens, UniProt Q12809); experiment: Inhibition of human ERG channel at 100 uM by automated patch clamp assay
[26] = test system: HepG2; experiment: Cytotoxicity against human HepG2 cells after 24 hrs by cell titre-glo assay; assay type: cell-based; conditions: HepG2, 24 h
[27] = biological target: Voltage-gated inwardly rectifying potassium channel KCNH2 (Homo sapiens, UniProt Q12809); experiment: Inhibition of human ERG channel by automated patch clamp assay
Sequence of Voltage-gated inwardly rectifying potassium channel KCNH2 (Q12809 whole entry): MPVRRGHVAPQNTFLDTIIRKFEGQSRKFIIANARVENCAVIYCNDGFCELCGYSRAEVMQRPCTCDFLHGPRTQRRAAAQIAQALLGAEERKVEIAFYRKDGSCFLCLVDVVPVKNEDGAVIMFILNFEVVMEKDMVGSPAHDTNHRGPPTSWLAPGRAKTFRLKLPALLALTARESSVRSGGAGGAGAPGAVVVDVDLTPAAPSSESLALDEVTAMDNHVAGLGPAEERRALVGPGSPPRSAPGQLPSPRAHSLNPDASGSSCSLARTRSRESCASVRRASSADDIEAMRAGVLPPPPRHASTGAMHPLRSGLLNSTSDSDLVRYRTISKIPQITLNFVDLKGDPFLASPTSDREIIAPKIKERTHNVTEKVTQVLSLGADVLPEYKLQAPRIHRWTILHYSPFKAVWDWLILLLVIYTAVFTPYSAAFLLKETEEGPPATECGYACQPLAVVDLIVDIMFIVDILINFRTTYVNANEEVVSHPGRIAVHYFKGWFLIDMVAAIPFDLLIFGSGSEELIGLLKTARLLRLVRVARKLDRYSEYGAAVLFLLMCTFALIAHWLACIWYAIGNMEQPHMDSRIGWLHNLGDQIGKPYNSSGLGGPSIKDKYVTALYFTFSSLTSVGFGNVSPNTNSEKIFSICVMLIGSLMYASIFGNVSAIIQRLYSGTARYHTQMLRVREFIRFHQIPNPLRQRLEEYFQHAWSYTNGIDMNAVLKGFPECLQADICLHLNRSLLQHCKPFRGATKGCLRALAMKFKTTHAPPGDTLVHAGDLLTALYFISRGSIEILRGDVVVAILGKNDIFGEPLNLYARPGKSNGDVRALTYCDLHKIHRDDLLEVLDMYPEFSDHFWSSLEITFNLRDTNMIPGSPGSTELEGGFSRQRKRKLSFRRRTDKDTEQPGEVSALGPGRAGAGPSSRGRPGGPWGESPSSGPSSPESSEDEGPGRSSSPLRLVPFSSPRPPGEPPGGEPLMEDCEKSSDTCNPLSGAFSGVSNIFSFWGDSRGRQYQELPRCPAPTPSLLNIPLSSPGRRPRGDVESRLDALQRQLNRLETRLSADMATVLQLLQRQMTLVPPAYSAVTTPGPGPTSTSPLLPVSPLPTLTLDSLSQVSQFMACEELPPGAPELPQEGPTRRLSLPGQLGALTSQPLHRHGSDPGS

Sequence of hERG (KCNH2) (Q12809 whole entry): as above

CCc1c(-c2ccc(N3CCC(CNC)C3)cc2)[nH]c(=O)c2c(=O)[nH]sc12 (centres undefined)
MIC [1]: 1 µg/mL (≈ 2.6 µM) | MIC [2]: 32 µg/mL (≈ 83.2 µM) | MIC [3]: 2 µg/mL (≈ 5.2 µM) | MIC [4]: 2 µg/mL (≈ 5.2 µM) | MIC [5]: > 128 µg/mL | MIC [6]: 0.008 µg/mL (≈ 0.0208 µM)

CCc1c(-c2ccc(N3C[C@@H]4CCCN[C@@H]4C3)cc2)[nH]c(=O)c2c(=O)[nH]sc12
MIC [1]: 0.5 µg/mL (≈ 1.26 µM) | MIC [2]: 4 µg/mL (≈ 10.1 µM) | MIC [3]: 1 µg/mL (≈ 2.52 µM) | MIC [4]: 1 µg/mL (≈ 2.52 µM) | MIC [5]: 8 µg/mL (≈ 20.2 µM) | MIC [6]: 0.008 µg/mL (≈ 0.0202 µM)

CCc1c(-c2cccc(N3CCC(CNC)C3)c2)[nH]c(=O)c2c(=O)[nH]sc12 (centres undefined)
MIC [1]: > 64 µg/mL | MIC [2]: > 64 µg/mL | MIC [3]: 64 µg/mL (≈ 166 µM) | MIC [4]: > 64 µg/mL | MIC [5]: > 64 µg/mL | MIC [6]: 8 µg/mL (≈ 20.8 µM)

CCc1c(-c2ccc(N3C[C@@H]4CCCN(C)[C@@H]4C3)cc2)[nH]c(=O)c2c(=O)[nH]sc12
MIC [7]: > 64 µg/mL | MIC [8]: 16 µg/mL (≈ 39 µM) | MIC [9]: 32 µg/mL (≈ 77.9 µM) | MIC [1]: 4 µg/mL (≈ 9.74 µM) | Selectivity ratio [10]: >16 | Selectivity ratio [11]: 16 | MIC [2]: 64 µg/mL (≈ 156 µM) | Selectivity ratio [12]: 16 | MIC [3]: 4 µg/mL (≈ 9.74 µM) | Selectivity ratio [13]: 4 | MIC [14]: 4 µg/mL (≈ 9.74 µM) | MIC [15]: > 64 µg/mL | MIC [16]: 16 µg/mL (≈ 39 µM) | Selectivity ratio [17]: 8 | MIC [4]: 32 µg/mL (≈ 77.9 µM) | MIC [18]: > 64 µg/mL | Selectivity ratio [19]: 4 | MIC [5]: 64 µg/mL (≈ 156 µM) | Selectivity ratio [20]: >16 | MIC [21]: 64 µg/mL (≈ 156 µM) | Selectivity ratio [22]: >16 | MIC [6]: 1 µg/mL (≈ 2.44 µM) | MIC [23]: 64 µg/mL (≈ 156 µM)

CCc1c(-c2ccc(N3CCNCC3)cc2)[nH]c(=O)c2c(=O)[nH]sc12
MIC [1]: 4 µg/mL (≈ 11.2 µM) | MIC [2]: 64 µg/mL (≈ 180 µM) | MIC [3]: 8 µg/mL (≈ 22.4 µM) | MIC [4]: 16 µg/mL (≈ 44.9 µM) | MIC [5]: > 64 µg/mL | MIC [6]: 0.5 µg/mL (≈ 1.4 µM)

CCc1c(-c2ccc(N3C[C@@H]4CCN(C)[C@@H]4C3)cc2)[nH]c(=O)c2c(=O)[nH]sc12
MIC [1]: 0.5 µg/mL (≈ 1.26 µM) | MIC [2]: 8 µg/mL (≈ 20.2 µM) | MIC [3]: 4 µg/mL (≈ 10.1 µM) | MIC [4]: 8 µg/mL (≈ 20.2 µM) | MIC [5]: 8 µg/mL (≈ 20.2 µM) | MIC [6]: 0.06 µg/mL (≈ 0.151 µM)

CCc1c(-c2ccc(N3CC[C@@H](N(C)C)C3)cc2)[nH]c(=O)c2c(=O)[nH]sc12
MIC [1]: 0.5 µg/mL (≈ 1.3 µM) | MIC [2]: 8 µg/mL (≈ 20.8 µM) | MIC [3]: 2 µg/mL (≈ 5.2 µM) | MIC [4]: 1 µg/mL (≈ 2.6 µM) | MIC [5]: 4 µg/mL (≈ 10.4 µM) | MIC [6]: 0.03 µg/mL (≈ 0.078 µM)

CCc1c(-c2ccc(N3CC[C@@H](O)C3)cc2)[nH]c(=O)c2c(=O)[nH]sc12
MIC [1]: 0.12 µg/mL (≈ 0.336 µM) | MIC [2]: 2 µg/mL (≈ 5.6 µM) | MIC [3]: 0.015 µg/mL (≈ 0.042 µM) | MIC [4]: 1 µg/mL (≈ 2.8 µM) | MIC [5]: 16 µg/mL (≈ 44.8 µM) | MIC [6]: 0.008 µg/mL (≈ 0.0224 µM)

CCc1c(-c2ccc(N3CC[C@H](O)C3)cc2)[nH]c(=O)c2c(=O)[nH]sc12
MIC [1]: 0.25 µg/mL (≈ 0.699 µM) | MIC [2]: 4 µg/mL (≈ 11.2 µM) | MIC [3]: 0.12 µg/mL (≈ 0.336 µM) | logD [24]: 1.5 | inhibition at 100 µM [25]: 22% | MIC [4]: 0.5 µg/mL (≈ 1.4 µM) | IC50 [26]: > 16 µg/mL | MIC [5]: 32 µg/mL (≈ 89.5 µM) | MIC [6]: 0.03 µg/mL (≈ 0.0839 µM)

CCc1c(-c2ccc(N3CCC(N(C)C)C3)cc2)[nH]c(=O)c2c(=O)[nH]sc12 (racemic)
MIC [7]: 16 µg/mL (≈ 41.6 µM) | MIC [8]: 2 µg/mL (≈ 5.2 µM) | MIC [9]: 16 µg/mL (≈ 41.6 µM) | MIC [1]: 0.25 µg/mL (≈ 0.65 µM) | Selectivity ratio [10]: 16 | Selectivity ratio [11]: 32 | MIC [2]: 4 µg/mL (≈ 10.4 µM) | Selectivity ratio [12]: 32 | MIC [3]: 1 µg/mL (≈ 2.6 µM) | logD [24]: 1.4 | inhibition at 100 µM [25]: 84% | Selectivity ratio [13]: 8 | MIC [14]: 0.5 µg/mL (≈ 1.3 µM) | MIC [15]: 8 µg/mL (≈ 20.8 µM) | MIC [16]: 4 µg/mL (≈ 10.4 µM) | Selectivity ratio [17]: 32 | MIC [4]: 1 µg/mL (≈ 2.6 µM) | pIC50 [27]: 4.70 | MIC [18]: 64 µg/mL (≈ 166 µM) | IC50 [26]: > 128 µg/mL | Selectivity ratio [19]: 4 | MIC [5]: 2 µg/mL (≈ 5.2 µM) | Selectivity ratio [20]: 128 | MIC [21]: 16 µg/mL (≈ 41.6 µM) | Selectivity ratio [22]: 32 | MIC [6]: 0.03 µg/mL (≈ 0.078 µM) | MIC [23]: 16 µg/mL (≈ 41.6 µM)

O=C(O)c1cn(C2CC2)c2cc(N3CCNCC3)c(F)cc2c1=O [CIPROFLOXACIN]
MIC [7]: > 64 µg/mL | MIC [2]: 0.25 µg/mL (≈ 0.754 µM) | MIC [3]: 0.25 µg/mL (≈ 0.754 µM) | MIC [4]: 1 µg/mL (≈ 3.02 µM) | MIC [18]: 64 µg/mL (≈ 193 µM) | IC50 [26]: > 128 µg/mL | MIC [21]: 64 µg/mL (≈ 193 µM) | MIC [23]: > 64 µg/mL
